Earlier results in patent publication US20110124589A1, “INHALED FOSFOMYCIN/TOBRAMYCIN FOR THE TREATMENT OF CHRONIC OBSTRUCTIVE PULMONARY DISEASE” (Gilead Sciences, Inc., priority 2009, published 2011).
Converted amounts (≈) assume the structure as drawn.

System: S. aureus
Settings: 16 isolates; agar dilution; cited from earlier work

Compound | MIC50 [µg/mL]
O=C(O)c1cn(C2CC2)c2cc(N3CCNCC3)c(F)cc2c1=O [ciprofloxacin] | > 4
CN[C@H](CC(C)C)C(=O)N[C@H]1C(=O)N[C@@H](CC(N)=O)C(=O)N[C@H]2C(=O)N[C@H]3C(=O)N[C@H](C(=O)N[C@H](C(=O)O)c4cc(O)cc(O)c4-c4cc3ccc4O)[C@H](O)c3ccc(c(Cl)c3)Oc3cc2cc(c3O[C@@H]2O[C@H](CO)[C@@H](O)[C@H](O)[C@H]2O[C@H]2C[C@](C)(N)[C@H](O)[C@H](C)O2)Oc2ccc(cc2Cl)[C@H]1O [vancomycin] | 1 (≈ 0.69 µM)
